The target of one data set is T1, hERG channel (Homo sapiens, UniProt Q12809).
T1 construct: purchased Invitrogen
Nature of the data set: Predictor hERG Fluorescence Polarization Assay. It is filed as binding. Here is the method:
To evaluate toxicity towards mammalian cell lines (hepatocytes (Seralab), neurons and MDCK cells (ATCC); a renal cell line from dogs), all the compounds were assayed with MTT [66]. Additionally, for cardiotoxicity evaluation, where toxic effects in cardiomyocytes could be affecting their function before being lethal, a hERG assay was performed according to the manufacturer’s protocol Predictor hERG Fluorescence Polarization Assay (Invitrogen). Briefly, inhibition of hERG channel was analysed by competition of BNIPSpd and a high-affinity red fluorescent hERG channel ligand. BNIPSpd (9) was mixed with the ligand and membranes containing hERG channel, incubated for 2 hrs at RT and the fluorescence polarization was measured using 530 / 590 nm ex/em filters using the Synergy 2 plate reader (Biotek).

A further data set has as its target TcSir2rp1 (Trypanosoma cruzi, UniProt Q4DVL9). As to the kind of experiment: TcSir2rp1 NAD+-dependent deacetylase fluorimetric assay (CycLex kit). It is filed as biochemical.
The next data set has as its system Neurons. As to the kind of experiment: HCS injury score panel in primary neurons. It is filed as cell-based. How it is done: In vitro assays were also performed in primary cells (hepatocytes and neurons) to evaluate BNIPSpd (9) potential toxicity: (a) host cell nuclei counting after HOECHST staining, (b) viability by measuring the metabolism of WST-8 probe, (c) apoptosis induction through caspase 3/7 activation, (d) evaluation of mitochondrial dysfunction by measuring the membrane potential using TMRM probe, (e) membrane integrity by measuring the extracellular LDH, (f) DNA damage by histone H2AX phosphorylation (exclusively in hepatocytes) and (g) imaging of neurite outgrowth (exclusively in neurons).
The assays were performed 24 hrs after cell collection and isolation. For apoptosis, TMRM, HOECHST and WST-8 assays, cells were seeded at a density of 5000 cells/well in coated 96-well plates, incubated for 24 hrs with the compound and then stained during 1 hour with the following fluorescent probes: 5 μM CellEvent Caspase 3/7 Green Detection Reagent (Invitrogen) for measuring caspase 3/7 activation, 50 μM tetramethyl rhodamine methyl ester (TMRM probe, Anaspec Inc.) for measuring mitochondrial depolarization related to transient cytosolic Ca^2+ signals, 5 μg/mL of HOECHST (Sigma-Aldrich) for nuclei detection and 10 μL/well of WST-8 reagent (Sigma-Aldrich) to detect viable cells. Then, absorbance at 450 nm was measured in order to analyse cell viability (WST-8). Cells were washed three times and analysed using the automatic fluorescence microscope BD Pathway 855. Pictures were taken using a 20 X objective and 488/515 nm ex/em filters for CellEvent Caspase 3/7 reagent, 555/ 645 nm ex/em filters for TMRM and 380/460 nm ex/em filters for HOECHST. Data were analysed with AttoVision (Becton Dickinson). The LDH assay was performed according to the manufacturer's protocol, Cytotoxicity Detection Kit LDH (Roche). LDH release was measured in mU/L in culture media obtained from cells subjected to treatments for 24 hrs, by measuring the released LDH rate of oxidation of NADH to NAD^+ at 340 nm using Synergy 2 from BioTech.
For the neurite outgrowth assay, samples were washed with PBS, fixed using methanol for 10 mins at -20°C. The fixed samples were washed three times with PBS and permeabilized with PBS-Triton X-100 0.3% for 10 mins, washed three times and then blocked with BSA 0.5% in PBS for 30 mis. […] Neurite average length was calculated using the neurite outgrowth module of AttoVision software (Becton Dickinson).
Nimesulide (400 μM) was included as a positive toxicity control, and the vehicle as a negative control. The relative percentage of deviation from the negative control was quantified and assigned with a number from 0 to 5 according to the following criteria: 0 (0–20% deviation), 1 (20–40%), 2 (40–60%), 3 (60–100%), 4 (100–1000%), or 5 (>1000% deviation). […]

[1] abbreviates: single dose 10 μM, 200 μM NAD+, 10 μM peptide.

Sequence of TcSir2rp1 (Q4DVL9 entry or part of it): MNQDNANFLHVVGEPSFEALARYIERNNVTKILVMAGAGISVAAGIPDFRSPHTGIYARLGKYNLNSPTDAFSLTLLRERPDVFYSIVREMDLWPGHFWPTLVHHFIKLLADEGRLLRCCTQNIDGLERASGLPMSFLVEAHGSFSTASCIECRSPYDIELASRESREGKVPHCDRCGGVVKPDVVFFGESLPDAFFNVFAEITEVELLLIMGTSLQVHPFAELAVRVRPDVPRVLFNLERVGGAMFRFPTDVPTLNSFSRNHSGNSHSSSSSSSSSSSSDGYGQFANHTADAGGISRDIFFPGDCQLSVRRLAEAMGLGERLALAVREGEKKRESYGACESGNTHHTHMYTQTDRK
T1 sequence (Q12809 whole entry): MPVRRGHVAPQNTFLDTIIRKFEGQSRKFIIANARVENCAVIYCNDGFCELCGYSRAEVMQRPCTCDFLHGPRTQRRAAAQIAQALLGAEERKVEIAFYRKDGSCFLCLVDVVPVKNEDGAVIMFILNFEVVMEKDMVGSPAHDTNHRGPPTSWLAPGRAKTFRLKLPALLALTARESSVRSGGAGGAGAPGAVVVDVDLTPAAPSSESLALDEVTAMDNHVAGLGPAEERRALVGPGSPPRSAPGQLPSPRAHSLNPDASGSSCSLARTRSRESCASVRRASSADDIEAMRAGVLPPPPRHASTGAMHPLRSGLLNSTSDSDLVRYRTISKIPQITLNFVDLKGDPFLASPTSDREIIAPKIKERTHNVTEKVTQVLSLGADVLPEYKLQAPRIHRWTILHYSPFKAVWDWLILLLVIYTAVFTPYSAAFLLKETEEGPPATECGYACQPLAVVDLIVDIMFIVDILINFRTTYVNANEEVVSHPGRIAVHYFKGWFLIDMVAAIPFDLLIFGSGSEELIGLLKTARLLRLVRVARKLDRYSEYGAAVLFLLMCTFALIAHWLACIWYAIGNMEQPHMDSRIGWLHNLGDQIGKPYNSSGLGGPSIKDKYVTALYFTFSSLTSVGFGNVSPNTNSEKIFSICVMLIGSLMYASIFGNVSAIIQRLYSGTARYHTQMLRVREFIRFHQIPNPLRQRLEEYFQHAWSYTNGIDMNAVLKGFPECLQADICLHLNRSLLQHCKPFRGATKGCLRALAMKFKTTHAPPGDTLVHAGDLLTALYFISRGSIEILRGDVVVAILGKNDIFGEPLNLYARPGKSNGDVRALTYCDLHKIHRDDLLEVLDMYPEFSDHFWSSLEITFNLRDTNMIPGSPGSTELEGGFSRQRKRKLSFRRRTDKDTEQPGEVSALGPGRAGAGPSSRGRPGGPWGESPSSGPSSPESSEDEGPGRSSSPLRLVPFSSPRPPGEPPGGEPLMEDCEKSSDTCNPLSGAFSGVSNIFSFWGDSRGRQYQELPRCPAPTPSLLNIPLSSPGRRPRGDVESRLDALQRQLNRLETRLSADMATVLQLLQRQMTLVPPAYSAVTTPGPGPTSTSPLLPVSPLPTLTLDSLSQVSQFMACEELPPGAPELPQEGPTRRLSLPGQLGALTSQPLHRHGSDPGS

As for `O=C1c2cccc3cccc(c23)C(=O)N1CCCNCCCCNCCCNCCCN1C(=O)c2cccc3cccc(c23)C1=O` [Compound 9, BNIP Spermidine], the hERG channel functional at hERG channel is 99.6%. Also, on hERG channel (fluorescence polarization competition, 2 hrs RT), the “Cardiotoxicity (hERG predictor)” value is 0.36 ± 0.51%. Also, the inhibition (commonly the share of the control response that was lost under treatment) at 50 µM on TcSir2rp1 (50 μM) was 72 ± 6%. Besides, at TcSir2rp1 (setting [1]), the “Inhibition of NAD+-dependent deacetylase activity of TcSir2rp1” value is on record as “statistically significant inhibition” and the inhibition at 10 µM was ~50%. For the same compound, in the data set on Neurons (HCS panel), the “Concentration from which toxicity was most significant in neurons” value came to 12.5 µM and the “Concentration up to which no effects in neurons” value was determined as 0.7 µM. Moreover, the “Injury score for neurons” value in the data set on Neurons (at higher concentrations (50 μM)) is “high levels”. Also, the “Injury score for neurons” value in the data set with Neurons (combined score of cytotoxicity panel, 24 hrs) was “moderate injury (moderate injury (≥5-to <12))”.
